Results reported in patent US9963461B2, “Phillygenin ibuprofen ester, preparation method therefor, and application thereof” (priority 2014, dated 2018).
Like-named read-outs stand apart in the source and are kept apart here.

Columns and labels:
Vero cell = experiment: Cytotoxicity test on Vero cell (MTT); settings: 72 hours
influenza virus = type: in vivo, Kunming mice; settings: for Lung index (X ± S) / Lung index Inhibitive rate (%): influenza virus infected mice, 5 days

## COc1ccc([C@H]2OCC3C2CO[C@H]3c2ccc(OC)c(OC(=O)C(C)c3ccc(CC(C)C)cc3)c2)cc1OC (stereo partly drawn) [Phillygenin ibuprofen ester, phillygenin ibuprofen ester]
Vero cell
  Median toxic concentration (TC50): 485 µg/mL
  maximal non-toxic concentration (TC0): 0.109 g/L
Influenza virus; 4.0 mg/kg/d intragastric
  Lung index (X ± S): 1.222 ± 0.040
  Lung index Inhibitive rate (%): 17.90%
Influenza virus; 8.0 mg/kg/d intragastric
  Lung index (X ± S): 1.190 ± 0.061
  Lung index Inhibitive rate (%): 20.05%
Influenza virus; 13.0 mg/kg/d intragastric
  Lung index (X ± S): 1.147 ± 0.048
  Lung index Inhibitive rate (%): 22.94%
Influenza virus; mouse, in vivo
  effect on average lung index vs infection model group: certain protective effect
